Earlier results as cited in EP0496617B1, “Adenosine kinase inhibitors” (priority 1991, dated 1992).

Columns and labels:
[1] = tested on: isolated rat hearts; details: perfused with the compound alone; normoxic, hypoxic, anoxic or ischemic conditions; cited from earlier work
[2] = tested on: rat brain slices; details: cited from earlier work
[3] = tested on: guinea pig brain slices; details: cited from earlier work
[4] = tested on: dog hearts; details: cited from earlier work
[5] = tested on: mice; details: cited from earlier work
[6] = tested on: anesthetized rats; details: cited from earlier work
[7] = tested on: rat cardiomyocytes; details: inhibition of ADA together with adenosine kinase; cited from earlier work
[8] = tested on: Isolated guinea pig hearts; details: added to the perfusion medium in the presence of EHNA; cited from earlier work

Compound	perfusate adenosine concentration [1]	adenosine uptake [2]	adenosine uptake [3]	effects in ischemia and reperfusion [4]	body temperature [5]	flaccidity and spontaneous locomotor activity [5]	blood pressure and heart rate [6]	increase in adenosine release [7]	increase of adenosine release [8]
Nc1ncnc2c1c(I)cn2[C@@H]1O[C@H](CO)[C@@H](O)[C@H]1O [5-iodotubercidin, reference compound]	no increase in perfusate adenosine concentration	inhibited	inhibited	inconsistent effects	hypothermia	pronounced general flaccidity and much-reduced spontaneous locomotor activity	decrease blood pressure and heart rate		
NC[C@H]1O[C@@H](n2cnc3c(N)ncnc32)[C@H](O)[C@@H]1O [GP-1-238, 5'-amino-5'-deoxyadenosine]								6 fold	15 fold
